Reference: patent US20230085307A1, “PYRIDAZINONE COMPOUND AND HERBICIDE” (NISSAN CHEMICAL CORPORATION, priority 2019, published 2023)

Assays:
late watergrass = assay: Test Example 1: herbicidal activity, application before weed generation under submerged conditions (Table 16, symbol A); assay type: in vivo, late watergrass (Echinochloa oryzicola)
Outline: (§1)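 Submerged Wagner pots (alluvial soil, 4 cm water) sown with weed seeds and planted with 2.5-leaf rice seedlings; emulsifiable concentrate diluted in water applied to water surface on sowing day. Held in greenhouse at 25-30 °C; injury scored 0-5 by herbicidal rate after three weeks.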

Japanese bulrush = assay: Test Example 1: herbicidal activity, application before weed generation under submerged conditions (Table 16, symbol B); assay type: in vivo, Japanese bulrush (Schoenoplectus juncoides)
Outline: as §1

oval-leafed pondweed = assay: Test Example 1: herbicidal activity, application before weed generation under submerged conditions (Table 16, symbol C); assay type: in vivo, oval-leafed pondweed (Monochoria vaginalis)
Outline: as §1

barnyard grass [1] = assay: Test Example 3: herbicidal effect by foliage application, Wagner pot (Table 18, symbol H); assay type: in vivo, barnyard grass (Echinochloa crus-galli); conditions: amount of applied herbicide 320 g/ha
Outline: (§2)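 Plants were sown in alluvial soil held under 0.1–0.5 cm standing water and grown 14 days in a greenhouse at 25–30 °C. An emulsifiable formulation, water-diluted to the set dose, was then sprayed onto the foliage, and effects were scored three weeks later using previously defined criteria.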

Chinese sprangletop = assay: Test Example 3: herbicidal effect by foliage application, Wagner pot (Table 18, symbol D); assay type: in vivo, chinese sprangletop (Leptochloa chinensis); conditions: amount of applied herbicide 320 g/ha
Outline: as §2

rice flat sedge = assay: Test Example 3: herbicidal effect by foliage application, Wagner pot (Table 18, symbol E); assay type: in vivo, rice flat sedge (Cyperus iria); conditions: amount of applied herbicide 320 g/ha
Outline: as §2

southern crabgrass = assay: Test Example 5: herbicidal effect by foliage application, plastic box (Table 20, symbol F); assay type: in vivo, southern crabgrass (Digitaria ciliaris); conditions: foliage application
Outline: (§3)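 Sow seeds spot-wise in sterilized diluvial soil; cover with ~1.5 cm soil. Grow 14 days in greenhouse, 25° C. to 30° C. Spray foliage with emulsion diluted to predetermined amount. Rate effect after 3 weeks.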

green foxtail = assay: Test Example 5: herbicidal effect by foliage application, plastic box (Table 20, symbol G); assay type: in vivo, green foxtail (Setaria viridis); conditions: foliage application
Outline: as §3

barnyard grass [2] = assay: Test Example 5: herbicidal effect by foliage application, plastic box (Table 20, symbol H); assay type: in vivo, barnyard grass (Echinochloa crus-galli); conditions: foliage application
Outline: as §3

wild oat = assay: Test Example 5: herbicidal effect by foliage application, plastic box (Table 20, symbol I); assay type: in vivo, wild oat (Avena fatua); conditions: foliage application
Outline: as §3

blackgrass = assay: Test Example 5: herbicidal effect by foliage application, plastic box (Table 20, symbol J); assay type: in vivo, blackgrass (Alopecurus myosuroides); conditions: foliage application
Outline: as §3

Italian ryegrass = assay: Test Example 5: herbicidal effect by foliage application, plastic box (Table 20, symbol K); assay type: in vivo, Italian ryegrass (Lolium multiflorum); conditions: foliage application
Outline: as §3

windgrass = assay: Test Example 5: herbicidal effect by foliage application, plastic box (Table 20, symbol L); assay type: in vivo, windgrass (Apera spica-venti); conditions: foliage application
Outline: as §3

velvetleaf = assay: Test Example 5: herbicidal effect by foliage application, plastic box (Table 20, symbol M); assay type: in vivo, velvetleaf (Abutilon theophrasti); conditions: foliage application
Outline: as §3

redroot pigweed = assay: Test Example 5: herbicidal effect by foliage application, plastic box (Table 20, symbol N); assay type: in vivo, redroot pigweed (Amaranthus retroflexus); conditions: foliage application
Outline: as §3

lambsquarters = assay: Test Example 5: herbicidal effect by foliage application, plastic box (Table 20, symbol O); assay type: in vivo, lambsquarters (Chenopodium album); conditions: foliage application
Outline: as §3

chickweed = assay: Test Example 5: herbicidal effect by foliage application, plastic box (Table 20, symbol P); assay type: in vivo, common chickweed (Stellaria media); conditions: foliage application
Outline: as §3

persian speedwell = assay: Test Example 5: herbicidal effect by foliage application, plastic box (Table 20, symbol R); assay type: in vivo, Persian speedwell (Veronica persica); conditions: foliage application
Outline: as §3

[3] = AAH 320 g/ha, evaluated three weeks after application
[4] = amount of applied herbicide 320 g/ha
[5] = 320 g/ha, three weeks after application

Q: Cc1nn(C)c(=O)c(-c2c(-c3ccc(OC(F)F)cc3)sc3ccc(F)cc23)c1OCC(F)(F)F [2-302] was tested. Which “Herbicidal effect on A: late watergrass (grade 0-5)” value (late watergrass; 320 g/ha applied herbicide) did it give?
A: The value was 3 (Herbicidal rate of 40% or more and less than 70%).

Q: And the “Herbicidal effect on B: Japanese bulrush (grade 0-5)” value (Japanese bulrush; 320 g/ha applied herbicide)?
A: Its value is 0 (Herbicidal rate of 5% or less (almost no effect)).

Q: And the “Herbicidal effect on C: oval-leafed pondweed (grade 0-5)” value (oval-leafed pondweed; 320 g/ha applied herbicide)?
A: Its value is 0 (Herbicidal rate of 5% or less (almost no effect)).

Q: And the “herbicidal effect on H: barnyard grass” value (barnyard grass [1])?
A: The value was 3 (Herbicidal rate of 40% or more and less than 70%).

Q: And the “herbicidal effect on D: Chinese sprangletop” value (Chinese sprangletop)?
A: The value was 0 (Herbicidal rate of 5% or less (almost no effect)).

Q: And the “herbicidal effect on E: rice flat sedge” value (rice flat sedge)?
A: Its value is 3 (Herbicidal rate of 40% or more and less than 70%).

Q: What about the “F: southern crabgrass, herbicidal effect (criteria 0-5)” value (southern crabgrass; [3]) of the same compound?
A: Its value is 0 (Herbicidal rate of 5% or less (almost no effect)).

Q: What about the “G: green foxtail, herbicidal effect (criteria 0-5)” value (green foxtail; [3]) of the same compound?
A: Its value is 0 (Herbicidal rate of 5% or less (almost no effect)).

Q: And the “H: barnyard grass, herbicidal effect (criteria 0-5)” value (barnyard grass [2]; [3])?
A: Its value is 0 (Herbicidal rate of 5% or less (almost no effect)).

Q: What about the “I: wild oat, herbicidal effect (criteria 0-5)” value (wild oat; [3]) of the same compound?
A: The value was 0 (Herbicidal rate of 5% or less (almost no effect)).

Q: What about the “J: blackgrass, herbicidal effect (criteria 0-5)” value (blackgrass; [3]) of the same compound?
A: The value was 0 (Herbicidal rate of 5% or less (almost no effect)).

Q: What about the “K: Italian ryegrass, herbicidal effect (criteria 0-5)” value (Italian ryegrass; [3]) of the same compound?
A: The value was 0 (Herbicidal rate of 5% or less (almost no effect)).

Q: And the “L: windgrass, herbicidal effect (criteria 0-5)” value (windgrass; [3])?
A: Its value is 0 (Herbicidal rate of 5% or less (almost no effect)).

Q: And the “M: velvetleaf, herbicidal effect (criteria 0-5)” value (velvetleaf; [3])?
A: The value was 0 (Herbicidal rate of 5% or less (almost no effect)).

Q: What about the “N: redroot pigweed, herbicidal effect (criteria 0-5)” value (redroot pigweed; [3]) of the same compound?
A: The value was 3 (Herbicidal rate of 40% or more and less than 70%).

Q: What about the “O: lambsquarters, herbicidal effect (criteria 0-5)” value (lambsquarters; [3]) of the same compound?
A: The value was 1 (Herbicidal rate of 5% or more and less than 20%).

Q: And the “P: chickweed, herbicidal effect (criteria 0-5)” value (chickweed; [3])?
A: The value was 4 (Herbicidal rate of 70% or more and less than 90%).

Q: And the “R: persian speedwell, herbicidal effect (criteria 0-5)” value (persian speedwell; [3])?
A: The value was 1 (Herbicidal rate of 5% or more and less than 20%).

Q: How did the “Herbicidal effect, A: late watergrass” value (late watergrass; [4]) turn out when CSCCOc1ccc(-c2sc3ccc(F)cc3c2-c2c(OCCSC)c(C)nn(C)c2=O)cc1 [2-420] was run?
A: Its value is 2 (Herbicidal rate of 20% or more and less than 40%).

Q: And the “Herbicidal effect, B: Japanese bulrush” value (Japanese bulrush; [4])?
A: The value was 3 (Herbicidal rate of 40% or more and less than 70%).

Q: What about the “Herbicidal effect, C: oval-leafed pondweed” value (oval-leafed pondweed; [4]) of the same compound?
A: Its value is 0 (Herbicidal rate of 5% or less (almost no effect)).

Q: What about the “herbicidal effect on H: barnyard grass” value (barnyard grass [1]) of the same compound?
A: Its value is 5 (Herbicidal rate of 90% or more (almost completely withered)).

Q: What about the “herbicidal effect on D: Chinese sprangletop” value (Chinese sprangletop) of the same compound?
A: The value was 3 (Herbicidal rate of 40% or more and less than 70%).

Q: And the “herbicidal effect on E: rice flat sedge” value (rice flat sedge)?
A: The value was 4 (Herbicidal rate of 70% or more and less than 90%).

Q: And the “F: southern crabgrass, herbicidal effect grade” value (southern crabgrass; [5])?
A: The value was 4 (Herbicidal rate of 70% or more and less than 90%).

Q: What about the “G: green foxtail, herbicidal effect grade” value (green foxtail; [5]) of the same compound?
A: The value was 4 (Herbicidal rate of 70% or more and less than 90%).

Q: What about the “H: barnyard grass, herbicidal effect grade” value (barnyard grass [2]; [5]) of the same compound?
A: Its value is 5 (Herbicidal rate of 90% or more (almost completely withered)).

Q: And the “I: wild oat, herbicidal effect grade” value (wild oat; [5])?
A: The value was 0 (Herbicidal rate of 5% or less (almost no effect)).

Q: What about the “J: blackgrass, herbicidal effect grade” value (blackgrass; [5]) of the same compound?
A: Its value is 4 (Herbicidal rate of 70% or more and less than 90%).

Q: What about the “K: Italian ryegrass, herbicidal effect grade” value (Italian ryegrass; [5]) of the same compound?
A: Its value is 1 (Herbicidal rate of 5% or more and less than 20%).

Q: And the “L: windgrass, herbicidal effect grade” value (windgrass; [5])?
A: Its value is 4 (Herbicidal rate of 70% or more and less than 90%).

Q: What about the “M: velvetleaf, herbicidal effect grade” value (velvetleaf; [5]) of the same compound?
A: The value was 4 (Herbicidal rate of 70% or more and less than 90%).

Q: What about the “N: redroot pigweed, herbicidal effect grade” value (redroot pigweed; [5]) of the same compound?
A: Its value is 5 (Herbicidal rate of 90% or more (almost completely withered)).

Q: And the “O: lambsquarters, herbicidal effect grade” value (lambsquarters; [5])?
A: Its value is 5 (Herbicidal rate of 90% or more (almost completely withered)).

Q: What about the “P: chickweed, herbicidal effect grade” value (chickweed; [5]) of the same compound?
A: Its value is 4 (Herbicidal rate of 70% or more and less than 90%).

Q: What about the “R: persian speedwell, herbicidal effect grade” value (persian speedwell; [5]) of the same compound?
A: Its value is 4 (Herbicidal rate of 70% or more and less than 90%).
